From US5376676A (Allergan, Inc., priority 1991, dated 1994)

Assays:
[1] = target: bee venom phospholipase A2 (Apis mellifera, UniProt P00630); experiment: biochemical; details: read-out: IC50 PLA2
[2] = test system: Ca2+ channel mobilization (KCl induced); experiment: Calcium channel (mobilization) inhibition assay, KCl induced; format: cell-based
Source text: (§1) Calcium Channel (Mobilization) Inhibition Assay
(§2) Polymorphonuclear leukocytes (PMNa), gastric glands, GH3 cells, A431 cells, spleen cells, human keratinocytes corneal cells, etc. were loaded with the Ca^2+ sensitive fluorescent dye, Fura-2. The appropriate cell type was chosen and the potency and efficacy of the anti-inflammatory furanones on calcium mobilization, calcium channel inhibition quantitated. The methods used for A431 cells listed below are representative of those used for other cells.
(§3) A431 cells were detached using a 5-10 min trypsin-EDTA treatment whereas GH3 cells were treated 2 to 5 min with a 1% pancreatin solution. Cells were immediately washed twice in a 20 mM HEPES buffer (pH 7.4) containing 120 mM NaCl, 6 mM KCl, 1 mM MgSO4, 1 mg/ml glucose and 1 mg/ml pyruvate and 1.4 mM calcium (medium A). Approximately 5×10^6 cells were suspended in medium A and incubated with 4 μM fura-2-AM for 15 min at 37° C.
(§4) After washing the fura-2 loaded cells, the uptake of dye was checked using fluorescence micioscopy and found to be evenly distributed in the cytosol of all cells. Fluorescence was continuously recorded with a Perkin-Elmer LS-5 spectrofluorometer. The excitation wavelength was set at 340 nm and emission wavelength set at 500 nm. The cell suspension was continually stirred, maintained at 37° C. and equilibrated for approximately 5 min before addition of various agents. [Ca^2+ ]i was calculated using the following formula: [formula]
(§5) All fluorescence values were measured relative to a EGTA-quenched signal determined as follows: F was the relative fluorescence measurement of the sample. Fmax was determined by lysing the cells with digitonin (100 μg/ml) in DMSO. After Fmax was determined the pH was adjusted to 8, with NaOH and Ca^2+ chelated with 3 mM EGTA to totally quench the fura-2 signal and obtain Fmin.
(§6) When quin-2 was used, cells were Incubated with 10 μM quin-2 at 37° C. for 1 hr, washed and then used.

[3] = target: phosphoinositide-specific phospholipase C; experiment: Inhibition of phosphoinositide-specific phospholipase C assay (PLC); format: biochemical
Source text: Inhibition of Phosphoinositide-specific Phospholipase C
The effect of compounds of this invention on phosphoinositide-specific phospholipase-C may be determined by procedures described by Bennett et al, Molecular Pharmacology 32:587-593 (1987).

[4] = test system: Ca2+ channel mobilization (TRH induced); experiment: Calcium channel (mobilization) inhibition assay, TRH induced; format: cell-based; details: for IC50: TRH induced calcium mobilization
Source text: as §1, §2, §3
as §4, with “Fluorescence” for “After washing the fura-2 loaded cells, the uptake of dye was checked using fluorescence micioscopy and found to be evenly distributed in the cytosol of all cells. Fluorescence”
as §5, §6

bee venom phospholipase A2, sequence (P00630 34-167 limits assumed): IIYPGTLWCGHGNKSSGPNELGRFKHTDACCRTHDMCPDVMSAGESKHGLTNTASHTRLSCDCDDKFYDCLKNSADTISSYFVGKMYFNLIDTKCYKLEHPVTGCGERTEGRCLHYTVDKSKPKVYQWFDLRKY

Row | SMILES | IC50 [1] | IC50 [2] | IC50 [3] | IC50 [4] | Selectivity between calcium channel inhibition and phospholipase inhibition ([4]; conclusion from Table 1 (Ca2+ TRH/KCl vs PLA2, PLC))
1 | CCCCCCCCCCCCCC1=CC(=O)OC1 [Compound 1, 4-tridecyl-2(5H)-furanone] | > 3.3 µM | 1.5 µM | > 100 µM | 2.6 µM | selective calcium channel inhibitor
2 | CCCCCCCCCCCCCC1=CC(=O)OC1O (stereo not drawn) [Compound 2, 4-tridecyl-5-hydroxy-2(5H)-furanone] | 0.09 µM | 3 µM | > 100 µM | 3 µM | –
3 | CC1=C(CC/C(C)=C/CCC2=CCC(C3=CC(=O)OC3O)OC2O)C(C)(C)CCC1 (stereo not drawn) [manoalide, reference compound] | – | 0.8 µM | 3 µM | 0.6 µM | –
